In PMC10900215 (JACS Au, 2024):
Where “and” joins values, the source holds several entries; their conditions need not be identical. Identical values can stand only once. Entries after “also recorded” stand apart in the source; their conditions may differ.

Key:
METTL3 [1] = target: T1, METTL3 (Homo sapiens, UniProt Q86U44+Q96SW2); assay: In vitro ubiquitination assay, METTL3; assay type: biochemical; settings: 2, 8, and 32 μM, 30 °C, 2 h
T1 construct: Human full-length METTL3-METTL14 was expressed and purified as described above; Human full-length cereblon-DDB1 and 6xHis-CUL4A-6xHis-RBX1 were coexpressed; StrepII (N); GFP (N); TEV site (N); made in house; host or cells: baculovirus/Sf9 insect cells (METTL3-METTL14, cereblon-DDB1, CUL4A-RBX1)
Protocol: For the cell-free in vitro ubiquitination of METTL3-METTL14 purified E1, E2, ubiquitin, CUL4A-RBX1, Cereblon-DDB1, and METTL3-METTL14 were used. Human full-length METTL3-METTL14 was expressed and purified as described above. […] Purified recombinant human UBE1 E1 (E-305–025) was purchased from R&D Systems, UbcH5a E2 (23–029) from Merck and ubiquitin (SBB-UP0013) from South Bay Bio. For the ubiquitination reaction, components were mixed to final concentrations of 0.06 μM UBE1, 1.96 μM UbcH5a, 39 μM ubiquitin, 0.33 μM CUL4A-RBX1, 0.33 μM Cereblon-DDB1, 0.5 μM METTL3-METTL14, and different concentrations of compound 14 or me-14 (0, 2, 8, or 32 μM) in reaction buffer (50 mM Tris-HCl pH 7.6, 5 mM MgCl2, 0.2 mM CaCl2, 1 mM DTT, 100 mM NaCl, 0.01% BSA, 0.01% Triton X-100). The final reaction volume was 15 μL. After the addition of 2 mM ATP (or the equal volume of water for the control without ATP), the reaction mixture was incubated for 2 h at 30 °C. […] The signals were quantified by using the Image Studio Lite software. To determine the percentage of ubiquitinated METTL3, the fraction of unmodified METTL3 was calculated by dividing the signal of the band assigned to unmodified METTL3 by the signal of the area containing both the unmodified and (poly)ubiquitinated METTL3 and normalizing to the control without ATP. […]

METTL3 [2] = target: T2, METTL3 (Homo sapiens, UniProt Q86U44); assay: Cellular thermal shift assay (CETSA) in MOLM-13, METTL3; assay type: cell-based; settings: MOLM-13, 54 °C
T2 construct: METTL3–14 degradation up to 70% of the endogenous level; endogenous in cells; host or cells: MOLM-13, PC3, DU145
Protocol: One million of MOLM-13 cells were suspended in 100 μL of PBS (10010023, Thermo Fisher Scientific) containing 2× protease inhibitor cocktail (11697498001, Roche), for each condition tested. Cells were incubated with compounds or DMSO control (1% (v/v)) for 1 h at 37 °C. They were then heat treated at 54 °C in a thermoblock for 3 min, followed by cooling to room temperature (3 min). Next, samples were lysed by threefreeze–thaw cycles in liquid nitrogen and centrifuge at 16000 g for 30 min, 4 °C. Equal volumes of control and tested samples (12 μL) were analyzed by Western blot. The changes in the amount of METTL3 protein (after normalization for β-actin and/or GAPDH) were monitored by performing densitometry in Image Studio Lite software and analyzed in GraphPad Prism 9.

METTL3 [3] = target: T2, METTL3; assay: Cellular degradation assay (Western blot), METTL3 in MOLM-13; assay type: cell-based; settings: for MOLM-13 West. blot at 24h 2 μM comp conc. Degradation (%) of METTL3: MOLM-13, 24 h, 2 μM compound
Summary of the method: (§1)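 Leukemia and prostate lines are grown in RPMI 1640 plus 10% FBS, then exposed for 24h to PROTAC or vehicle. Lysates are immunoblotted for METTL3 and METTL14, and band intensities are quantified.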

METTL3-14 [4] = target: T3, METTL3-14 (Homo sapiens, UniProt Q86U44); assay: Cellular degradation assay (Western blot), METTL3 and/or METTL14 (METTL3–14) in MOLM-13; assay type: cell-based; set-up: METTL3–14 degradation up to 70% of the endogenous level; endogenous in cells; host or cells: MOLM-13, KASUMI-1, THP-1, NOMO-1; settings: for degradation of METTL3 and/or METTL14: MOLM-13, 2 μM, 24 h, Western blot
Protocol: MOLM-13, NOMO-1, THP-1, Kasumi-1, PC3, and DU145 cell lines were obtained from DSMZ-German Collection of Microorganisms and Cell Cultures GmbH. […] All cell lines were tested negative for mycoplasma contamination (PCR-based assay by Microsynth, Switzerland).
METTL3 (and METTL14) protein degradation was monitored by Western blot. Cells were treated with the indicated concentration of PROTACs or DMSO control (0.1% (v/v)) for 24h, 37 °C with 5% CO2. […] After SDS-PAGE, proteins were transferred to a nitrocellulose membrane, blocked (with 5% milk, 0.5% BSA in TBST buffer), and incubated overnight with primary antibodies. […] Densitometry was performed in Image Studio Lite software and analyzed in GraphPad Prism 9.
Target sequence in this assay (Q86U44 2-580 limits assumed): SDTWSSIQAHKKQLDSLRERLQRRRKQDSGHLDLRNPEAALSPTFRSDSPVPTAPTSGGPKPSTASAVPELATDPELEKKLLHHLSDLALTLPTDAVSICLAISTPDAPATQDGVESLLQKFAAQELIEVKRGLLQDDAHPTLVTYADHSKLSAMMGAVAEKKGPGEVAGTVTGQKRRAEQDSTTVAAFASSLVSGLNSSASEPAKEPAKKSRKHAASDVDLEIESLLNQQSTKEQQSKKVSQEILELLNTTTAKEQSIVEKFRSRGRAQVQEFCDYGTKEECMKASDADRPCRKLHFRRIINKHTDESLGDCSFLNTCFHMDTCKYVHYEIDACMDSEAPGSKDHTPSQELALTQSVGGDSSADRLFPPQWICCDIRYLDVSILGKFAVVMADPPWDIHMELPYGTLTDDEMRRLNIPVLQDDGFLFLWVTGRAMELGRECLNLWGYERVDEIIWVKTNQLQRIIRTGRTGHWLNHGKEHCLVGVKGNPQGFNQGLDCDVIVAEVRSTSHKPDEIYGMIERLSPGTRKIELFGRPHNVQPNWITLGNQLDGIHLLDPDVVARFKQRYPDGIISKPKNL
Target sequence in this assay (Q9HCE5 whole entry partner): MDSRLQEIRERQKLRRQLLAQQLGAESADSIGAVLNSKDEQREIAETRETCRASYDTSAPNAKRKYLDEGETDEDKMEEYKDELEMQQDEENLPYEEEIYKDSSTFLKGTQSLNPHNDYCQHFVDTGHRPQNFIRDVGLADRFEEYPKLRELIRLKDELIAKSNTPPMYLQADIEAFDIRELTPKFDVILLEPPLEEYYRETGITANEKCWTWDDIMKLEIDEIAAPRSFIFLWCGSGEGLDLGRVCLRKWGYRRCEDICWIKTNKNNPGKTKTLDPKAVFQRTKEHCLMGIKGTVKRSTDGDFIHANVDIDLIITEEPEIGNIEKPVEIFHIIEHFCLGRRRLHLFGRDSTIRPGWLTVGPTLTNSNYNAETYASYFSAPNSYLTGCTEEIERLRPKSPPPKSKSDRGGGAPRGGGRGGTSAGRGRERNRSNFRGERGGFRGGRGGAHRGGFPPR

Cereblon (CRBN) = target: T4, Cereblon (CRBN) (Homo sapiens, UniProt Q96SW2); assay: Cellular thermal shift assay (CETSA) in MOLM-13, Cereblon; assay type: cell-based; settings: MOLM-13, 54 °C
T4 construct: endogenous in cells; host or cells: MOLM-13

PC3 cell line = assay: Cell viability assay (CellTiter-Glo) on PC3; assay type: cell-based, human
Protocol: MOLM-13, NOMO-1, THP-1, Kasumi-1, PC3, and DU145 cell lines were obtained from DSMZ-German Collection of Microorganisms and Cell Cultures GmbH. Cells were cultured in RPMI 1640 medium (11875093, Thermo Fisher Scientific) containing 10% FBS (16140071, Thermo Fisher Scientific) and 1% penicillin-streptomycin (15140122, Thermo Fisher Scientific) in 5% CO2 at 37 °C in a humidified incubator, with maintained cell densities at 0.5–1 × 10^6 cells/mL. All cell lines were tested negative for mycoplasma contamination (PCR-based assay by Microsynth, Switzerland).
Cells were seeded in white clear-bottom 96-well plates at a density of 6–20 × 10^3 cells/well in 50 μL of the complete RPMI medium and treated with 50 μL of increasing concentrations of the indicated compounds dissolved in DMSO (final concentration of compounds 0.01–10 μM) or DMSO only as a negative control (0.01% (v/v)) and incubated for 72 h at 37 °C with 5% CO2. Cell viability was determined using a CellTiter-Glo luminescent cell viability assay (Promega) based on the detection of ATP according to the manufacturer’s instructions. 100 μL of the reagent was added to each well and incubated for 10 min at room temperature. The luminescence was recorded using a Tecan Infinite […] M1000 microplate reader from the top. Background luminescence value was obtained from wells containing the CellTiter-Glo reagent and medium without cells. The resulting data was analyzed in GraphPad Prism 9.

[5] = target: T5, ternary complex CRBN/PROTAC/METTL3–14 (Homo sapiens, UniProt Q86U44+Q96SW2); assay: FRET-based ternary complex formation assay (TCFA); assay type: binding; settings: for ECmax (nM) ± SD: PROTAC concentration at the maximum of the signal in the TCFA
T5 construct: methyltransferase domains (MTD) of METTL3 (residues 354–580); His6 (N, cleaved yes); made in house; host or cells: METTL3-MTD/METTL14-MTD: baculovirus/Sf9; CRBN-TBD: E. coli Rosetta (DE3), co-expressed with BirA
Summary of the method: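 HTRF/TR-FRET measurement of PROTAC-induced complex between GST-tagged METTL3–14 and biotinylated CRBN^TBD-Avi (10 nM final) with 0.8 nM Eu^3+ anti-GST antibody, in 50 mM HEPES pH 7.5, 150 mM NaCl, 0.1% BSA, 100 mM KF. Emission ratio used; ECmax and Hook-curve amplitude taken from Gaussian fit or highest-signal data point.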

PRDM9 = PRDM9 (Homo sapiens, UniProt Q9NQV7); assay: Protein methyltransferases selectivity profile; assay type: biochemical; settings: control compound
From the text: (§2) Remaining activity [%][a]
(§3) Methyltransferase Control IC50 (M) Control […]
(§4) concerning the buffer solution containing DMSO. The closer to 100% these values are, the weaker the […]
(§5) Table S2. Hook curve amplitudes derived from the TR-FRET ternary complex formation assay with all compounds in the paper. n = number of independent measurements (biological replicates).
(§6) Compound amplitude n Compound amplitude n […]

METTL14 = assay: Cellular degradation assay (Western blot), METTL14 in MOLM-13; assay type: cell-based, human; settings: MOLM-13, 24 h, 2 μM compound
Summary of the method: as §1

[6] = Cell viability assay (CellTiter-Glo) on MOLM-13; assay type: cell-based; settings: human, MOLM-13 cells, average of two biological replicates; for viability at 72 h, […]: 2.5 µM
Summary of the method: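 MOLM-13 AML cells grown in RPMI 1640 with 10% FBS at 37 °C, 5% CO2. Viability read as ATP luminescence by CellTiter-Glo after 10 min at room temperature, with background from cell-free medium wells subtracted.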

METTL3-14 [7] = target: T3, METTL3-14; assay: Protein methyltransferases selectivity profile; assay type: biochemical
From the text: as §2, §3, §4, §5, §6
Target sequence in this assay (Q86U44 whole entry): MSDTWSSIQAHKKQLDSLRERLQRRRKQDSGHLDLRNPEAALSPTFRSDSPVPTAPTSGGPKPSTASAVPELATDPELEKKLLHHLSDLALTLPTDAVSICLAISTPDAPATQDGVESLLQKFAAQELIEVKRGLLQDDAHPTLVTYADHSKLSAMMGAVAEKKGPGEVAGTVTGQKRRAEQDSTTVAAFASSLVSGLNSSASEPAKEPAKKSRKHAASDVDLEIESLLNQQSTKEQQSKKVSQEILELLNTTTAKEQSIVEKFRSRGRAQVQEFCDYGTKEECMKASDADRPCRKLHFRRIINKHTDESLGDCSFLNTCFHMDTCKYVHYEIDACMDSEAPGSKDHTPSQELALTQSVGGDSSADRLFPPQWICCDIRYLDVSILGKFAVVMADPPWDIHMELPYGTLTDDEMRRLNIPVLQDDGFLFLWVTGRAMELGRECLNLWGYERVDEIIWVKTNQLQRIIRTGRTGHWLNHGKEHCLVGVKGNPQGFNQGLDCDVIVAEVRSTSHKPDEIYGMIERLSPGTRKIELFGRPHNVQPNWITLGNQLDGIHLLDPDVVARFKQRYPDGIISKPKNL
Target sequence in this assay (Q9HCE5 whole entry partner): as the sequence (Q9HCE5 whole entry partner) above

SETD2 = SETD2 (Homo sapiens, UniProt Q9BYW2); assay: Protein methyltransferases selectivity profile; assay type: biochemical; settings: control compound
From the text: as §2, §3, §4, §5, §6

SMYD3 = SMYD3 (Homo sapiens, UniProt Q9H7B4); assay: Protein methyltransferases selectivity profile; assay type: biochemical; settings: control compound
From the text: as §2, §3, §4, §5, §6

[8] = target: His-GST-METTL3^MTD-METTL14^MTD (human) (UniProt Q86U44)
Sequence of His-GST-METTL3^MTD-METTL14^MTD (human) (Q86U44 354-580, chain 1 of 2): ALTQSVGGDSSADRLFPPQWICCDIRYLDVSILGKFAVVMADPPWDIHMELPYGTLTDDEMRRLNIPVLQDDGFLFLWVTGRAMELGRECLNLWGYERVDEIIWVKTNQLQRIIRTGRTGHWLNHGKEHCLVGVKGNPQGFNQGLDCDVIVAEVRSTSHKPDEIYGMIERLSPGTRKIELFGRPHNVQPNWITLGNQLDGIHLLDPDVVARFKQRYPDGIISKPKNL
Sequence of His-GST-METTL3^MTD-METTL14^MTD (human) (chain, as listed by the source, chain 2 of 2): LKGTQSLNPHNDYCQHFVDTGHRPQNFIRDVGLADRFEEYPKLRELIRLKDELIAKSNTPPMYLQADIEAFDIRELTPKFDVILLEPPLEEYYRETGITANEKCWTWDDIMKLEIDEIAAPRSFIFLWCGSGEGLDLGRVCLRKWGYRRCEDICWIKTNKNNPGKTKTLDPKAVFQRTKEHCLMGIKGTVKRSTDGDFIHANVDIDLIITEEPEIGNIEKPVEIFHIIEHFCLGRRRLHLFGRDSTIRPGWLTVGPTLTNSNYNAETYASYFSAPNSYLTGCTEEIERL

T5 sequence (Q86U44 354-580): as the sequence (Q86U44 354-580, chain 1 of 2) above
T5 sequence (Q9HCE5 107-395 partner limits assumed): as the sequence (chain, as listed by the source, chain 2 of 2) above
T5 sequence (Q96SW2 318-442): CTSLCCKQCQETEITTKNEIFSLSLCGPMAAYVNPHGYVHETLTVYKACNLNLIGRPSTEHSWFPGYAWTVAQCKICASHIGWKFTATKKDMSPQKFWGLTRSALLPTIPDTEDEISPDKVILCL
T2 sequence (Q86U44 2-580 limits assumed): as the sequence (Q86U44 2-580 limits assumed) above
T2 sequence (Q9HCE5 whole entry partner): as the sequence (Q9HCE5 whole entry partner) above
Sequence of SMYD3 (Q9H7B4 whole entry): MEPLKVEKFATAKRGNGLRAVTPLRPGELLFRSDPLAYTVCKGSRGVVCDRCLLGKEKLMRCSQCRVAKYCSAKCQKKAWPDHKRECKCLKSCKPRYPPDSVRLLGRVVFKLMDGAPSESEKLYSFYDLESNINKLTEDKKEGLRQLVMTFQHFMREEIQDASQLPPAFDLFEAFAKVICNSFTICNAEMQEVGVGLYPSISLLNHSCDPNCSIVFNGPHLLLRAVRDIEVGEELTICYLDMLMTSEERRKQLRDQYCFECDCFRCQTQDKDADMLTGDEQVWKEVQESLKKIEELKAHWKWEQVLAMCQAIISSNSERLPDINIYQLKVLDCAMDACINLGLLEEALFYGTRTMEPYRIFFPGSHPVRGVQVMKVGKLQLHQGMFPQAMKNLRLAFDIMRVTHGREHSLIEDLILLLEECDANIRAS
Sequence of PRDM9 (Q9NQV7 whole entry, species assumed): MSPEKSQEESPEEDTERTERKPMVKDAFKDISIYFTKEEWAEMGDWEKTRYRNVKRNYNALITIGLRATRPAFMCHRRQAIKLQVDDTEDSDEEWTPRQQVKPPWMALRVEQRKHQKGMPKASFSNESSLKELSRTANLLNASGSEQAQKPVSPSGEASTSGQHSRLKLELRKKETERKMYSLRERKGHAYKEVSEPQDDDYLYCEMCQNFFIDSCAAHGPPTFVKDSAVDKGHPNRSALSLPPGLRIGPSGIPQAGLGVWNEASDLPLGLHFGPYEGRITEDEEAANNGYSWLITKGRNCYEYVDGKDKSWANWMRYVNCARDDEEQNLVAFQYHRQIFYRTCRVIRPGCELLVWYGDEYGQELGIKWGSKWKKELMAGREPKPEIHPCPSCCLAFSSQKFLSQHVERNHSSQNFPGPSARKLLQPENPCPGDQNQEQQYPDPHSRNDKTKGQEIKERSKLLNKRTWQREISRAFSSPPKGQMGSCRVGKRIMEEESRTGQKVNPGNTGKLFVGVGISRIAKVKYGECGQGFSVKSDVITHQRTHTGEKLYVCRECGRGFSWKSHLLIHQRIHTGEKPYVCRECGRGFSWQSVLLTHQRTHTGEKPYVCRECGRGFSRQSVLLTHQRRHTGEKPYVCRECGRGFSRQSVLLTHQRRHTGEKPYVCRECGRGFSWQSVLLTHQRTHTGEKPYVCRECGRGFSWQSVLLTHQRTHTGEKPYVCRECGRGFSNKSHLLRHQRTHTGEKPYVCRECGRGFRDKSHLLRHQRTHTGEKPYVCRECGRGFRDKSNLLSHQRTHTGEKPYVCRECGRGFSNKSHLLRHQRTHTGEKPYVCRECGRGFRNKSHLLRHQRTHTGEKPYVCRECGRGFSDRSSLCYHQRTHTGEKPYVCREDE
T4 sequence (Q96SW2 whole entry): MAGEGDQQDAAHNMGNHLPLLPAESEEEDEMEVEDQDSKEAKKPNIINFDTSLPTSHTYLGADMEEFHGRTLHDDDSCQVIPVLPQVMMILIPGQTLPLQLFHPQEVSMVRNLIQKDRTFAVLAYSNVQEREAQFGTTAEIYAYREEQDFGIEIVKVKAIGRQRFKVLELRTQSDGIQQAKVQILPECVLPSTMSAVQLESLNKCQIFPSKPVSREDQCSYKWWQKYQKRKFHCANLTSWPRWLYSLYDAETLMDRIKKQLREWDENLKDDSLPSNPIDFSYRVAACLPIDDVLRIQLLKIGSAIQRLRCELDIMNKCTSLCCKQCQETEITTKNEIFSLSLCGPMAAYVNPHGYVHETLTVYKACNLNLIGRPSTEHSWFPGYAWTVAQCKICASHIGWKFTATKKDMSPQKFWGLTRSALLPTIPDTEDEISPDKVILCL

With `CN1C(=O)CCC(N2C(=O)c3cccc(NCCCC(=O)NCc4cccc(CNc5cc(N6CCC7(CC6)CN(c6cc(F)c(CN8CCC(C)(C)CC8)cc6F)CC(=O)N7)ncn5)c4)c3C2=O)C1=O` (centres unmarked) [me-14] the “ubiquitination of METTL3 compared to the control without compound” value (METTL3 [1]) was “does not increase”, the “stabilization of METTL3 (CETSA)” value (METTL3 [2]) was “stabilize METTL3 in a concentration-dependent manner; also recorded: stabilization of METTL3” and the METTL3 levels (METTL3 [3]; MOLM-13, 10 μM) was “increased METTL3 levels”. For the same compound, the “degradation of METTL3 and/or METTL14” value (METTL3-14 [4]) was “did not show any METTL3–14 degradation”, the “degradation of METTL3 and METTL14, concentration dependence” value (METTL3-14 [4]; MOLM-13, five concentrations) was “no degradation” and the “stabilization of Cereblon (CETSA)” value (Cereblon (CRBN)) was “not of CRBN”.

With `CNc1cc(N2CCC3(CC2)CN(c2cc(F)c(CN4CCC(C)(C)CC4)cc2F)CC(=O)N3)ncn1` [UZH2, reference compound] the “METTL3–14 levels” value (METTL3-14 [4]; MOLM-13, 10 μM UZH2 control without PROTAC) was “elevated levels of METTL3–14”, the antiproliferative effect (PC3 cell line) was “not” and the “activity / signal in the ternary complex formation assay” value [5] was “no activity”.

Work on `CN1C(=O)[C@@]23C[C@]4([C@]56C[C@@]78SS[C@@](CO)(C(=O)N7[C@H]5Nc5ccccc56)N(C)C8=O)c5ccccc5N[C@@H]4N2C(=O)[C@]1(CO)SS3` [Chaetocin] yielded an IC50 (PRDM9) of 905 nM.

For `CC1(C)CCN(Cc2cc(F)c(N3CC(=O)NC4(CCN(c5cc(NCCN6CCN(c7cccc8c7C(=O)N(C7CCC(=O)NC7=O)C8=O)CC6)ncn5)CC4)C3)cc2F)CC1` (centres unmarked) [Compound 32], the “MOLM-13 West. blot at 24h 2 μM comp conc. Degradation (%) of METTL3” value (METTL3 [3]) was “/ (Degradation <10% or stabilization)”, the “degradation of METTL3 and/or METTL14” value (METTL3-14 [4]) was “inactive” and the “MOLM-13 West. blot at 24h 2 μM comp conc. Degradation (%) of METTL14” value (METTL14) was “/ (Degradation <10% or stabilization)”. For the same compound, the viability at 72 h, 0.6 µM [6] was 106%, the viability at 72 h, 1.25 µM [6] was 106% and the viability at 72 h, […] [6] was 103%. For the same compound, the viability at 72 h, 5 µM [6] was 91.5%, the viability at 72 h, 10 µM [6] was 74.6% and the “activity / signal in the ternary complex formation assay” value [5] was “inactive”. The “ECmax (nM) ± SD” value [5] was “– ^b”.

`Nc1ncnc2c1ncn2[C@@H]1O[C@H](CSCC[C@H](N)C(=O)O)[C@@H](O)[C@H]1O` [SAH, S-(5’-adenosyl)-L-homocysteine] showed an IC50 (METTL3-14 [7]) of 153 nM, an IC50 (SETD2) of 1380 nM and an IC50 (SMYD3) of 8.48 µM.

In the case of `CC1(C)CCN(Cc2cc(F)c(N3CC(=O)NC4(CCN(c5cc(NCCN6CCN(c7cnc(N8CCN(C(=O)CCCNc9cccc%10c9C(=O)N(C9CCC(=O)NC9=O)C%10=O)CC8)nc7)CC6)ncn5)CC4)C3)cc2F)CC1` (centres unmarked) [Compound 33], the “MOLM-13 West. blot at 24h 2 μM comp conc. Degradation (%) of METTL3” value (METTL3 [3]) is reported as 44% and 44 ± 6%, the “degradation of METTL3 and/or METTL14” value (METTL3-14 [4]) is reported as “at least 50%” and the “MOLM-13 West. blot at 24h 2 μM comp conc. Degradation (%) of METTL14” value (METTL14) is reported as 51 ± 19%. It also gave a viability at 72 h, 0.6 µM [6] of 92.1%, a viability at 72 h, 1.25 µM [6] of 90.9% and a viability at 72 h, […] [6] of 95.3%. For the same compound, the viability at 72 h, 5 µM [6] was 97.7%, the viability at 72 h, 10 µM [6] was 89.6% and the “TCFA amplitude (mean ± SEM)” value ([5]; Hook curve amplitude, fraction of the maximum of compound 16) was 0.8 ± 0.1. The “ECmax (nM) ± SD” value [5] was 70 ± 10 nM.

Compound “CRBN^TBD-Avi(biotin) (from UniProt Q96SW2 318-442) (domain or fragment)” has a degradation of METTL3 and METTL14 in MOLM-13 cells (Western blot) with PROTAC 30 at five concentrations; Hook effect [8] of 60% and a degradation of METTL3 in MOLM-13 cells (Western blot) with PROTAC 14 at five concentrations; Hook effect [8] of 50%.
